# Tests used:
# [1] = test system: AsPC-1 cells; assay: AsPC-1 cell proliferation assay (CellTiter Glo); format: cell-based; settings: Homo sapiens, ASPC1, 144 h, 6 days
# Method in brief: (§1)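 AsPC-1 cells were seeded at 22,000/well for degradation and 3,500/well for proliferation. Compounds in 1:3 dilutions ([…] to 1.5 nM final) ran 24 h for degradation, read by in-cell immunofluorescence of KRAS G12D normalised to β-actin, and 6 days for proliferation (CellTiter Glo luminescence). DC50/IC50 came from dose-response fits.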
# [2] = target: T1, KRAS (G12D) (Homo sapiens, UniProt P01116, G12D); assay: KRAS (G12D) cellular degradation assay in AsPC-1 cells; format: cell-based; settings: 24 hours, antibody fluorescence (Odyssey CLX), DC50 half-maximal degradation concentration
# T1 construct: in-cell western with KRAS G12D antibody after 24 h
# T1 sequence (P01116 1-188 isoform P01116-2 G12D): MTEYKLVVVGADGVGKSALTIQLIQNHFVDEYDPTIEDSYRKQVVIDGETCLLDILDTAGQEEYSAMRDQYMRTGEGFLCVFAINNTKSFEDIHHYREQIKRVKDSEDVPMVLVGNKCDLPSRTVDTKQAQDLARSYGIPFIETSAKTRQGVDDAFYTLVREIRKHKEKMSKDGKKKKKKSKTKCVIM
# Method in brief: as §1
SMILES,IC50 [1],DC50 [2]
"CCn1nccc1-c1ccc([C@@H](NC(=O)[C@@H]2C[C@@H](O)CN2C(=O)[C@H](C(C)C)n2cc(-c3ccc(COc4c(-c5c(C)c(F)cc6[nH]ncc56)c(C5CC5)cc5c(N6C[C@@H]7C[C@H]6CN7)nc(OC6CC7(COC7)C6)nc45)cc3)nn2)[C@H](C)O)cc1 [Example 100, (2S,4R)-1-((2S)-2-(4-(4-(((2-((2-oxaspiro[3.3]heptan-6-yl)oxy)-4-((1S,4S)-2,5-diazabicyclo[2.2.1]heptan-2-yl)-6-cyclopropyl-7-(6-fluoro-5-methyl-1H-indazol-4-yl)quinazolin-8-yl)oxy)methyl)phenyl)-1H-1,2,3-triazol-1-yl)-3-methylbutanoyl)-N-((1R,2S)-1-(4-(1-ethyl-1H-pyrazol-5-yl)phenyl)-2-hydroxypropyl)-4-hydroxypyrrolidine-2-carboxamide]",< 10 nM,< 10 nM
"CCn1nccc1-c1ccc([C@H](CO)NC(=O)[C@@H]2C[C@@H](O)CN2C(=O)[C@H](C(C)C)n2cc(-c3ccc(COc4c(-c5c(C)c(F)cc6[nH]ncc56)c(C5CC5)cc5c(N6C[C@@H]7C[C@H]6CN7)nc(OC6CC7(CCOC7)C6)nc45)cc3)nn2)cc1 (stereo partly drawn) [Example 101, (2S,4R)-1-((2S)-2-(4-(4-(((2-((6-oxaspiro[3.4]octan-2-yl)oxy)-4-((1S,4S)-2,5-diazabicyclo[2.2.1]heptan-2-yl)-6-cyclopropyl-7-(6-fluoro-5-methyl-1H-indazol-4-yl)quinazolin-8-yl)oxy)methyl)phenyl)-1H-1,2,3-triazol-1-yl)-3-methylbutanoyl)-N—((R)-1-(4-(1-ethyl-1H-pyrazol-5-yl)phenyl)-2-hydroxyethyl)-4-hydroxypyrrolidine-2-carboxamide]",< 10 nM,< 10 nM
"CO[C@H]1C[C@@H](Oc2nc(N3C[C@@H]4C[C@H]3CN4)c3cc(C4CC4)c(-c4c(C)c(F)cc5[nH]ncc45)c(OCc4ccc(-c5cn([C@H](C(=O)N6C[C@H](O)C[C@H]6C(=O)N[C@@H](CO)c6ccc(-c7scnc7C)cc6)C(C)C)nn5)cc4)c3n2)C1 [Example 102, (2S,4R)-1-((2S)-2-(4-(4-(((4-((1S,4S)-2,5-diazabicyclo[2.2.1]heptan-2-yl)-6-cyclopropyl-7-(6-fluoro-5-methyl-1H-indazol-4-yl)-2-((1s,3R)-3-methoxycyclobutoxy)quinazolin-8-yl)oxy)methyl)phenyl)-1H-1,2,3-triazol-1-yl)-3-methylbutanoyl)-4-hydroxy-N—((R)-2-hydroxy-1-(4-(4-methylthiazol-5-yl)phenyl)ethyl)pyrrolidine-2-carboxamide]",< 10 nM,< 10 nM
"COC1CCC(Oc2nc(N3C[C@@H]4C[C@H]3CN4)c3cc(C4CC4)c(-c4c(C)c(F)c(F)c5[nH]ncc45)c(OCc4ccc(-c5cn([C@H](C(=O)N6C[C@H](O)C[C@H]6C(=O)N[C@@H](CO)c6ccc(-c7scnc7C)cc6)C(C)C)nn5)cc4)c3n2)CC1 (stereo partly drawn) [Example 103, (2S,4R)-1-((2S)-2-(4-(4-(((4-((1S,4S)-2,5-diazabicyclo[2.2.1]heptan-2-yl)-6-cyclopropyl-7-(6,7-difluoro-5-methyl-1H-indazol-4-yl)-2-(((1s,4R)-4-methoxycyclohexyl)oxy)quinazolin-8-yl)oxy)methyl)phenyl)-1H-1,2,3-triazol-1-yl)-3-methylbutanoyl)-4-hydroxy-N—((R)-2-hydroxy-1-(4-(4-methylthiazol-5-yl)phenyl)ethyl)pyrrolidine-2-carboxamide]",< 10 nM,10 to 100 nM
"CCn1nccc1-c1ccc([C@H](CO)NC(=O)[C@@H]2C[C@@H](O)CN2C(=O)[C@H](C(C)C)n2cc(-c3ccc(COc4c(-c5c(C)c(F)cc6[nH]ncc56)c(C5CC5)cc5c(N6C[C@@H]7C[C@H]6CN7)nc(OC6CC7COCC7C6)nc45)cc3)nn2)cc1 (stereo partly drawn) [Example 104, (2S,4R)-1-((2S)-2-(4-(4-(((4-((1S,4S)-2,5-diazabicyclo[2.2.1]heptan-2-yl)-6-cyclopropyl-7-(6-fluoro-5-methyl-1H-indazol-4-yl)-2-((hexahydro-1H-cyclopenta[c]furan-5-yl)oxy)quinazolin-8-yl)oxy)methyl)phenyl)-1H-1,2,3-triazol-1-yl)-3-methylbutanoyl)-N—((R)-1-(4-(1-ethyl-1H-pyrazol-5-yl)phenyl)-2-hydroxyethyl)-4-hydroxypyrrolidine-2-carboxamide]",< 10 nM,< 10 nM
"CCn1nccc1-c1ccc([C@H](CO)NC(=O)[C@@H]2C[C@@H](O)CN2C(=O)[C@H](C(C)C)n2cc(-c3ccc(COc4c(-c5c(C)c(F)cc6[nH]ncc56)c(C5CC5)cc5c(N6C[C@@H]7C[C@H]6CN7)nc(OC6CC7(CCOCC7)C6)nc45)cc3)nn2)cc1 [Example 105, (2S,4R)-1-((2S)-2-(4-(4-(((2-((7-oxaspiro[3.5]nonan-2-yl)oxy)-4-((1S,4S)-2,5-diazabicyclo[2.2.1]heptan-2-yl)-6-cyclopropyl-7-(6-fluoro-5-methyl-1H-indazol-4-yl)quinazolin-8-yl)oxy)methyl)phenyl)-1H-1,2,3-triazol-1-yl)-3-methylbutanoyl)-N—((R)-1-(4-(1-ethyl-1H-pyrazol-5-yl)phenyl)-2-hydroxyethyl)-4-hydroxypyrrolidine-2-carboxamide]",< 10 nM,< 10 nM
"CCn1nccc1-c1ccc([C@H](CO)NC(=O)[C@@H]2C[C@@H](O)CN2C(=O)[C@H](C(C)C)n2cc(-c3ccc(COc4c(-c5c(C)c(F)cc6[nH]ncc56)c(C5CC5)cc5c(N6CCCNCC6)nc(OC[C@H](C)OC)nc45)cc3)nn2)cc1 [Example 107, (2S,4R)-1-((2S)-2-(4-(4-(((6-cyclopropyl-4-(1,4-diazepan-1-yl)-7-(6-fluoro-5-methyl-1H-indazol-4-yl)-2-((S)-2-methoxypropoxy)quinazolin-8-yl)oxy)methyl)phenyl)-1H-1,2,3-triazol-1-yl)-3-methylbutanoyl)-N—((R)-1-(4-(1-ethyl-1H-pyrazol-5-yl)phenyl)-2-hydroxyethyl)-4-hydroxypyrrolidine-2-carboxamide]",< 10 nM,< 10 nM
"CCn1nccc1-c1ccc([C@@H](NC(=O)[C@@H]2C[C@@H](O)CN2C(=O)[C@H](C(C)C)n2cc(-c3ccc(COc4c(-c5c(C)c(F)cc6[nH]ncc56)c(C5CC5)cc5c(N6C[C@@H]7C[C@H]6CN7)nc(O[C@H]6C[C@H](OC)C6)nc45)cc3)nn2)[C@H](C)O)cc1 [Example 109, (2S,4R)-1-((2S)-2-(4-(4-(((4-((1S,4S)-2,5-diazabicyclo[2.2.1]heptan-2-yl)-6-cyclopropyl-7-(6-fluoro-5-methyl-1H-indazol-4-yl)-2-((1r,3S)-3-methoxycyclobutoxy)quinazolin-8-yl)oxy)methyl)phenyl)-1H-1,2,3-triazol-1-yl)-3-methylbutanoyl)-N-((1R,2S)-1-(4-(1-ethyl-1H-pyrazol-5-yl)phenyl)-2-hydroxypropyl)-4-hydroxypyrrolidine-2-carboxamide]",< 10 nM,< 10 nM
"CO[C@@H](C)COc1nc(N2C[C@@H]3C[C@H]2CN3)c2cc(C3CC3)c(-c3c(C)c(F)cc4[nH]ncc34)c(OCc3ccc(-c4cn([C@H](C(=O)N5C[C@H](O)C[C@H]5C(=O)N[C@H](C#Cc5ccc6nc(N)sc6c5)CO)C(C)C)nn4)cc3)c2n1 [Example 111, (2S,4R)-1-((2S)-2-(4-(4-(((4-((1S,4S)-2,5-diazabicyclo[2.2.1]heptan-2-yl)-6-cyclopropyl-7-(6-fluoro-5-methyl-1H-indazol-4-yl)-2-((S)-2-methoxypropoxy)quinazolin-8-yl)oxy)methyl)phenyl)-1H-1,2,3-triazol-1-yl)-3-methylbutanoyl)-N—((R)-4-(2-aminobenzo[d]thiazol-6-yl)-1-hydroxybut-3-yn-2-yl)-4-hydroxypyrrolidine-2-carboxamide]",< 10 nM,< 10 nM
"CCn1nccc1-c1ccc([C@H](CO)NC(=O)[C@@H]2C[C@@H](O)CN2C(=O)[C@H](C(C)C)n2cc(-c3ccc(COc4c(-c5c(C)c(F)cc6[nH]ncc56)c(C5CC5)cc5c(N6C[C@@H]7C[C@H]6CN7)nc(N6CCC(OC)C6)nc45)cc3)nn2)cc1 (stereo partly drawn) [Example 112, (2S,4R)-1-((2S)-2-(4-(4-(((4-((1S,4S)-2,5-diazabicyclo[2.2.1]heptan-2-yl)-6-cyclopropyl-7-(6-fluoro-5-methyl-1H-indazol-4-yl)-2-(3-methoxypyrrolidin-1-yl)quinazolin-8-yl)oxy)methyl)phenyl)-1H-1,2,3-triazol-1-yl)-3-methylbutanoyl)-N—((R)-1-(4-(1-ethyl-1H-pyrazol-5-yl)phenyl)-2-hydroxyethyl)-4-hydroxypyrrolidine-2-carboxamide]",< 10 nM,< 10 nM
"CCn1nccc1-c1ccc([C@@H](NC(=O)[C@@H]2C[C@@H](O)CN2C(=O)[C@H](C(C)C)n2cc(-c3ccc(COc4c(-c5c(C)c(F)cc6[nH]ncc56)c(C5CC5)cc5c(N6C[C@@H]7C[C@H]6CN7)nc(OC6CC7(CCOCC7)C6)nc45)cc3)nn2)[C@H](C)O)cc1 [Example 113, (2S,4R)-1-((2S)-2-(4-(4-(((2-((7-oxaspiro[3.5]nonan-2-yl)oxy)-4-((15,45)-2,5-diazabicyclo[2.2.1]heptan-2-yl)-6-cyclopropyl-7-(6-fluoro-5-methyl-1H-indazol-4-yl)quinazolin-8-yl)oxy)methyl)phenyl)-1H-1,2,3-triazol-1-yl)-3-methylbutanoyl)-N-((1R,2S)-1-(4-(1-ethyl-1H-pyrazol-5-yl)phenyl)-2-hydroxypropyl)-4-hydroxypyrrolidine-2-carboxamide]",< 10 nM,< 10 nM

# Source: patent US20260295053A1, “COMPOUNDS FOR DEGRADATION AND INHIBITION OF KRAS (G12D) PROTEIN” (Shenzhen Ionova Life Science Co., Ltd., priority 2023, published 2026)
